From ChEMBL document CHEMBL4007462, “Chemical and bioactivity of flavanones obtained from roots of Dalea pazensis Rusby” (Bioorg Med Chem Lett, 2017) come the findings set out here.

Molecules are shown by their SMILES. pIC50: −log10 of the molar value. The source made the active and inactive calls. No cut-off for these calls is given here.

The target in series [1] is T1, Mushroom tyrosinase (Agaricus bisporus) (UniProt O42713+Q00024+C7FF04+C7FF05). Put plainly: Inhibition of mushroom tyrosinase at 10 uM using L-tyrosine as substrate preincubated for 10 mins followed by substrate addition measured after 20 mins by spectrophotometric method relative to control.
In series [2] the target is T2, Tyrosinase (Mus musculus, UniProt P11344).
T2 sequence (P11344 whole entry): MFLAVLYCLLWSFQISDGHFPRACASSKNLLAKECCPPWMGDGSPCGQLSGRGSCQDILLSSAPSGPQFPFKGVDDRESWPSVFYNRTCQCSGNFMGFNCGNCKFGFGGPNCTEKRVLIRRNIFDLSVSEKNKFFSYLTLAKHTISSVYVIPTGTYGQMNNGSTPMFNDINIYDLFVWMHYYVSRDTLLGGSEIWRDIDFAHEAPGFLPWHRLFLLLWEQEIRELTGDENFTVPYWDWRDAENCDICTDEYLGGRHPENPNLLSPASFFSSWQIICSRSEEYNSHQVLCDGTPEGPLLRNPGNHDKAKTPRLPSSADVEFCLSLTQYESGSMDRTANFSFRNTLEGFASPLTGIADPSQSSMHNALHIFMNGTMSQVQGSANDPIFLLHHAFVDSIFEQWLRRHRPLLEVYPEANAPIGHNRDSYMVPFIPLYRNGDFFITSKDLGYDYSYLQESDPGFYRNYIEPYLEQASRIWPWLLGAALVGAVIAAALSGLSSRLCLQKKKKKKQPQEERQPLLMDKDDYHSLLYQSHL
Description: Inhibition of tyrosinase in mouse B16 cells assessed as reduction in melanin production measured after 24 hrs

The target of series [3] is T3, Tyrosinase (Mus musculus) (UniProt P11344).
T3 sequence (whole entry): T2 sequence (P11344 whole entry)
Put plainly: Inhibition of intracellular tyrosinase activity in mouse B16 cells at 5 uM using L-DOPA as substrate preincubated for 24 hrs followed by substrate addition and subsequent incubation for 20 mins measured at 1 min interval for 10 mins by MBTH reagent based spectrophotometric method relative to control. It is filed as cell-based.

A short description of series [4]: in vitro. The settings on record: mouse, B16 cells.
Description: Cytotoxicity against mouse B16 cells after 24 hrs by MTT assay
For series [5], the target named is T1, Mushroom tyrosinase (Agaricus bisporus). Put plainly: Inhibition of mushroom tyrosinase at 100 uM using L-tyrosine as substrate preincubated for 10 mins followed by substrate addition measured after 20 mins by spectrophotometric method relative to control.
The target in series [6] is Mushroom tyrosinase (Agaricus bisporus, UniProt O42713+Q00024+C7FF04+C7FF05). Description: Inhibition of mushroom tyrosinase using L-tyrosine as substrate preincubated for 10 mins followed by substrate addition measured after 20 mins by spectrophotometric method.
In series [7] the target is T3, Tyrosinase (Mus musculus). Put plainly: Inhibition of intracellular tyrosinase activity in mouse B16 cells at 0.05 uM using L-DOPA as substrate preincubated for 24 hrs followed by substrate addition and subsequent incubation for 20 mins measured at 1 min interval for 10 mins by MBTH reagent based spectrophotometric method relative to control. It counts as cell-based.

Series [8] concerns B16. Description: Inhibition of melanin formation from L-DOPA in mouse B16 cells preincubated for 24 hrs followed by L-DOPA addition and subsequent incubation for 20 mins measured at 1 min interval for 10 mins by MBTH reagent based spectrophotometric method. It is filed as functional, cell-based.

Take `C=CC(C)(C)c1cc(C2CC(=O)c3c(O)cc(O)c(CC=C(C)C)c3O2)c(O)cc1O` (stereo not drawn): the inhibition in series [1] amounted to 90.5%; in series [3], 31.8%; in series [5], 95%; in series [7], 20.6%. The compound also showed a negative logarithm of the IC50 (pIC50) in series [2] of 6.00. This compound also came in with an MNTC at 24 h in series [4] of 10 µM. Moreover, the half-maximal inhibitory concentration (IC50) in series [6] came to 2.32 µM.

For the compound `C=CC(C)(C)c1cc(C2CC(=O)c3c(O)cc(O)c(CC=C(C)C)c3O2)c(OC)cc1O` (stereo not drawn), the inhibition worked out at 21.5% in series [1] and 63.8% in series [5]. The inhibition result in series [8] is “Active”. This compound also had a negative logarithm of the IC50 (pIC50) in series [2] of 5.30. Moreover, in series [4], the MNTC at 24 h was 5 µM. Moreover, the concentration for half-maximal inhibition (IC50) in series [6] came to 49.8 µM.

For the compound `C=CC(C)(C)c1cc(C2CC(=O)c3c(cc(O)c(CC=C(C)C)c3O)O2)c(OC)cc1O` (stereo not drawn), the inhibition in series [1] and in series [5] was 0% each time. Also, the inhibition result in series [8] was “Active”. The negative-log IC50 (pIC50) in series [2] was 5.30. In series [4], the MNTC at 24 h worked out at 50 µM.

`CC(C)=CCc1c(O)cc2c(c1O)C(=O)CC(c1ccc(O)c(O)c1CC=C(C)C)O2` (stereo not drawn): the inhibition in series [1] was found to be 2.84%; in series [5] it was 9.4%. Besides, the inhibition result in series [8] is “Active”. The same compound showed a negative logarithm of the IC50 (pIC50) in series [2] of 6.12. Moreover, the MNTC at 24 h in series [4] turned out to be 1 µM.
